Assay results published in ChEMBL document CHEMBL4680212, “Discovery of T-1101 tosylate as a first-in-class clinical candidate for Hec1/Nek2 inhibition in cancer therapy” (Eur J Med Chem, 2020).

Legend:
[1] = Tmax in CD-1 mouse at 10 mg/kg, po administered as single dose via gavage by LC-MS/MS analysis; assay type: ADME, organism-based; conditions: in vivo
[2] = Cmax in CD-1 mouse at 10 mg/kg, po administered as single dose via gavage by LC-MS/MS analysis; assay type: ADME, organism-based; design: route oral, dose 10 mg/kg; conditions: in vivo
[3] = Half life in CD-1 mouse at 10 mg/kg, po administered as single dose via gavage by LC-MS/MS analysis; assay type: ADME, organism-based; conditions: in vivo
[4] = Oral bioavailability in CD-1 mouse at 10 mg/kg administered as single dose via gavage by LC-MS/MS analysis; assay type: ADME, organism-based; conditions: in vivo
[5] = AUC in CD-1 mouse at 10 mg/kg, po administered as single dose via gavage by LC-MS/MS analysis; assay type: ADME, organism-based; design: dose 10 mg/kg; conditions: in vivo
K562 = test: Antiproliferative activity against human K562 cells measured after 96 hrs by MTT assay; assay type: functional, cell-based; conditions: K562, 96 h

Row | Compound | Tmax [1] [h] | Cmax [2] [µM] | half-life [3] [h] | bioavailability [4] [%] | AUC [5] [µM·h] | IC50 (K562) [nM]
1 | COCCOc1cnc(Sc2cc(C)c(-c3csc(NC(=O)c4ccncc4)n3)c(C)c2)cn1.CS(=O)(=O)O | 1.5 | 8.44 | 3.38 | 58.5 | 47.5 | –
2 | Cc1cc(C)c(-c2csc(NC(=O)/C=C/c3ccc(C(C)(C)C)cc3)n2)c(C)c1 | – | – | – | – | – | 790
